Earlier results in patent US20250288613A1, “COMPOSITIONS AND METHODS TARGETING SAT1 FOR ENHANCING ANTI-TUMOR IMMUNITY DURING TUMOR PROGRESSION” (THE BRIGHAM AND WOMEN’S HOSPITAL, INC., priority 2022, published 2025).

Target: human spermidine/spermine acetyltransferase (SSAT) (Homo sapiens, UniProt P21673)
Details: competitive inhibition; spermidine as substrate

human spermidine/spermine acetyltransferase (SSAT), sequence (P21673 whole entry): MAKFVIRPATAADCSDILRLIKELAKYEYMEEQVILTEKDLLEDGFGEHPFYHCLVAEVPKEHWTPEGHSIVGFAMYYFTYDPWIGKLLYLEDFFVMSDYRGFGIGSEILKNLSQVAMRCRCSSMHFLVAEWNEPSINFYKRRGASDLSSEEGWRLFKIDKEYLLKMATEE

| Ki [nM] | Compound |
| --- | --- |
| 2400 | N=C(N)c1ccc(OCCCCCOc2ccc(C(=N)N)cc2)cc1 [Pentamidine] |
| 2000 | N=C(N)c1ccc(/N=N/Nc2ccc(C(=N)N)cc2)cc1 [berenil, 4,4′-(1-Triazene-1,3-diyl)bis(benzenecarboximidamide)] |
